Experimental data published in article doi:10.1101/2021.05.27.445942v1 (biorxiv, 2021).

Target: T1, CmedPR2 (with CmedORco) (Cnaphalocrocis medinalis, UniProt A0A0U3BFF0)
T1 sequence (A0A0U3BFF0 1-434): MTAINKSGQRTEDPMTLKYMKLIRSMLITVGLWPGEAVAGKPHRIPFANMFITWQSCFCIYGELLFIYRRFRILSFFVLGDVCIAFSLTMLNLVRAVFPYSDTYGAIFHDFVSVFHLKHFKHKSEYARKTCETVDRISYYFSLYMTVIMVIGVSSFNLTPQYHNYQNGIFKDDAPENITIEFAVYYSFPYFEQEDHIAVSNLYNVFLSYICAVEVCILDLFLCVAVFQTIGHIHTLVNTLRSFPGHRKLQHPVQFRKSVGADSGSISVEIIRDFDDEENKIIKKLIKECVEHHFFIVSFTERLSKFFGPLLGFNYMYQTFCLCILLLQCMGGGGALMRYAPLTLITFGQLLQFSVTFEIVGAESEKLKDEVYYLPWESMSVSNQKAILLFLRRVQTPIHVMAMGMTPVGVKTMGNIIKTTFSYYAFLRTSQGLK
T1 sequence (H9XFD5 1-473 partner): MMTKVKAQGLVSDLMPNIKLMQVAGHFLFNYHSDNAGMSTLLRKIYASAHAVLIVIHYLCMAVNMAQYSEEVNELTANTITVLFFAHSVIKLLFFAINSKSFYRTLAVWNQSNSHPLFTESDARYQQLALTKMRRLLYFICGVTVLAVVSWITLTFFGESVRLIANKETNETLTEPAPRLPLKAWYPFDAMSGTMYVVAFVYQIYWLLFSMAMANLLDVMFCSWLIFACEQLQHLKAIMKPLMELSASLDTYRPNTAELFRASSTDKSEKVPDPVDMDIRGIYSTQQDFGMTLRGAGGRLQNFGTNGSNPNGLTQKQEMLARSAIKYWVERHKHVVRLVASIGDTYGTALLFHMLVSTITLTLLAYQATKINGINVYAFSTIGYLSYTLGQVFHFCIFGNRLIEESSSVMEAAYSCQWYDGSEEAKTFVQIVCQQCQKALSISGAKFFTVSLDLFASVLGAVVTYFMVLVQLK
Experiment: two-electrode voltage clamp, Xenopus oocytes
Assay type: cell-based
Details: agonist 10-4 mol/L; co-expressed CmedORco; holding potential -80 mV; pH 7.5

| response current [nA] | Compound |
| --- | --- |
| > 140 | CCCC/C=C\CCCCCCCCCC=O [Z11-16:Ald] |
| > 140 | CCCCCC/C=C\CCCCCCCC=O [Z9-16:Ald] |
| 106 ± 6.4 | CCCC/C=C\CCCCCCCCCCCC=O [Z13-18:Ald, (Z)-13-octadecenal] |
| 46 ± 1.6 | CCCC/C=C\CCCCCCCCCCCCO [Z13-18:OH, (Z)-13-octadecen-1-ol] |
